# Results reported in PMC11722313 (bioRxiv, 2025).
# What was measured:
# IDE [1] = details: HDX-MS; ref Zhang et al, 2018; cited from earlier work
# [2] = target: IDE R668A (human insulin degrading enzyme, cysteine-free) (Homo sapiens, UniProt P14735, C110L/C171S/C178A/C257V/C414L/C573N/C590S/C789S/C812A/C819A/C904S/C966N/C974A/R668A); experiment: Competition assay: inhibition of MCA-[…]; format: biochemical; details: 5 nM IDE R668A, 5 μM MCA-RPPGFSAFK(Dnp), pH 7.5, 37° C; average of three technical replicates
# [3] = SEC-SAXS of IDE constructs; format: physicochemical, human; details: Guinier method
# [4] = Size-exclusion chromatography elution of IDE constructs; format: physicochemical, human; details: S200 SEC column
# IDE [5] = experiment: Cryo-EM of IDE in the presence of sub-saturating insulin; set-up: species or system human
# IDE [6] = details: time-resolved SAXS; ref Zhang et al., 2018; cited from earlier work
# [7] = IDE:insulin 2:1, compared with previously reported O and pO states
# IDE R668A (human insulin degrading enzyme, cysteine-free), sequence (P14735 42-1019 C110L/C171S/C178A/C257V/C414L/C573N/C590S/R668A/C789S/C812A/C819A/C904S/C966N/C974A limits assumed): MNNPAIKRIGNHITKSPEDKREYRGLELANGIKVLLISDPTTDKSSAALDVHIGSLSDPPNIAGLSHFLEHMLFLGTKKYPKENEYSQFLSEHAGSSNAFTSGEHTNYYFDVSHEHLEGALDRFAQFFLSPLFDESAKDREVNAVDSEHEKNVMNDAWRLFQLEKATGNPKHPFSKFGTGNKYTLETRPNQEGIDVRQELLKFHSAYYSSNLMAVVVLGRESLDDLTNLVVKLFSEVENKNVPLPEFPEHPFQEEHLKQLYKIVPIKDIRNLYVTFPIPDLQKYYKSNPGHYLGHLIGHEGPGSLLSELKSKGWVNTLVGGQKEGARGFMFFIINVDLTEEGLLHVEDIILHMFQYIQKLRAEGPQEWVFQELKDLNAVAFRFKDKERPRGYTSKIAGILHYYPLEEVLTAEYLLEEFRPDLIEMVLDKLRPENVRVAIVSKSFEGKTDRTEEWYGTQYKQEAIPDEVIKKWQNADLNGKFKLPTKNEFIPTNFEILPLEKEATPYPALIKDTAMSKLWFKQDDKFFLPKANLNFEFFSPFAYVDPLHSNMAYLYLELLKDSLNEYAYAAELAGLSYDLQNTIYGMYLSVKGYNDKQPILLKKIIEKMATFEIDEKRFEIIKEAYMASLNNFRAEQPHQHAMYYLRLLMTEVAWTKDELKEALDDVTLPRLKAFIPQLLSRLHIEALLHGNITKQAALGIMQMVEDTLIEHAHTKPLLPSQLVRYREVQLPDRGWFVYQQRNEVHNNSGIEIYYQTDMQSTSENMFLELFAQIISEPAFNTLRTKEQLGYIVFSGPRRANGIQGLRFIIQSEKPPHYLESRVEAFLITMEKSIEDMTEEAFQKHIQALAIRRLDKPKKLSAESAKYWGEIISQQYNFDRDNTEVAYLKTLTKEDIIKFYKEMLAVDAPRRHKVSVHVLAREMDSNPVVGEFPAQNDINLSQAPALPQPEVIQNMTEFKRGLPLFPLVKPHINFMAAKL
compound,measurement,setting,value
O=C(C[C@@H](Cc1ccc2ccccc2c1)n1cc(CNC(=O)c2ccc(F)cc2)nn1)NO [BDM-44768],deuterium exchange of the R668-containing peptide vs apo-IDE,IDE [1],the peptide containing R668 shows reduced deuterium exchange relative to apo-IDE
"Aβ(1–40): amyloid-β 1–40, an unstructured substrate of IDE","competition of MCA-RPPGFSAFK(Dnp) degradation, IDE R668A (in words)",[2],did not exhibit a dose-dependent response to the presence of Aβ and the data could not be fit to any kinetic equation
R668A: IDE carrying a R668 to alanine (R668A) point mutation,Rg (Guinier),[3],54.7 +/− 0.4 Å
same,SEC elution relative to WT IDE,[4],eluted slightly earlier than WT IDE
"insulin: IDE substrate; purchased from MP Biomedicals (#0219390010) for enzymatic assays, SIGMA (91077C) for cryo-EM",closing of pO and O subunits in presence of insulin (D1-D4 COM distance),IDE [5]; [7],3–5 Å
same,reduction of D1-D2-D3-D4 COM dihedral in presence of insulin,IDE [5]; [7],5–10 °
same,dominant IDE state with sub-saturating insulin,"IDE [5]; IDE:insulin molar ratio 2:1, cryo-EM",the pC/pC was still found to be dominant
same,time constant tau for the insulin induced open to closed transition,IDE [6],~ 100 milliseconds
